Measured values from patent US20240358693A1, “METHODS OF TREATING PAIN” (Aisa Pharma, Inc., priority 2023, published 2024).

System: participants with SSc-RP
Experiment: Average severity of weekly RP attacks (VAS 0-10 cm scale)
Assay type: in vivo, human
Description: The absolute change in average severity of weekly RP attacks (VAS 0-10 cm scale) from baseline to the end of each Dosing Period was and will be a secondary outcome variable. The sponsor-developed participant-informed diary will be used to record data. Average severity of weekly RP attacks is defined as the total severity scores of RP attacks divided by total number of RP attacks within the last 7 days of each dosing period. Total severity scores of RP attacks during the last 7 days of screening period divided by the total number of RP attacks will be used as baseline for the analysis of all periods. The variable will be calculated similar to frequency data as before.

[1] = Excluding Outliers, Tadalafil 5 mg, second Baseline RCS subgroup block (not named), ITT Part A
[2] = Excluding Outliers, Tadalafil 5 mg, second Baseline RCS subgroup block (not named), ITT Part A, score 0-10
[3] = Tadalafil 5 mg, n=1, Excluding Outliers, ITT Population - Part A
[4] = Tadalafil 5 mg, n=2, ITT Population - Part A
[5] = Tadalafil 5 mg, n=2, by Baseline RCS, second subgroup, ITT Population - Part A
[6] = Tadalafil 5 mg, Excluding Outliers, ITT Population - Part A
[7] = Tadalafil 5 mg, Excluding Outliers, by Baseline RCS, second subgroup, ITT Population - Part A
[8] = Tadalafil 5 mg, ITT Population - Part A
[9] = Tadalafil 5 mg, second Baseline RCS subgroup block (not named), ITT Part A
[10] = Tadalafil 5 mg, second Baseline RCS subgroup block (not named), ITT Part A, score 0-10

CN1CC(=O)N2[C@H](c3ccc4c(c3)OCO4)c3[nH]c4ccccc4c3C[C@@H]2C1=O [Tadalafil, tadalafil]
Average Severity of Weekly RP Attacks (All Attacks), Percent Change from Baseline, Mean [1]: −20.69%
Average Severity of Weekly RP Attacks (All Attacks), Percent Change from Baseline, Median [1]: −20.69%
Average Severity of Weekly RP Attacks (All Attacks), Change from Baseline, Mean [2]: −1.19
Average Severity of Weekly RP Attacks (All Attacks), Change from Baseline, Median [2]: −1.19
Average Severity of Weekly RP Attacks (All Attacks), Mean [2]: 4.56
Average Severity of Weekly RP Attacks (All Attacks), Median [2]: 4.56
Average Severity (0-10) of Weekly Symptomatic RP Attacks, Mean [3]: 4.67
Average Severity (0-10) of Weekly Symptomatic RP Attacks, Median [3]: 4.67
Average Severity of Weekly Symptomatic RP Attacks, Change from Baseline, Mean [3]: −1.32
Average Severity of Weekly Symptomatic RP Attacks, Change from Baseline, Median [3]: −1.32
Average Severity of Weekly Symptomatic RP Attacks, Percent Change from Baseline, Mean [3]: −22.01%
Average Severity of Weekly Symptomatic RP Attacks, Percent Change from Baseline, Median [3]: −22.01%
Average Severity (0-10) of Weekly Symptomatic RP Attacks, Mean [4]: 7.08
Average Severity (0-10) of Weekly Symptomatic RP Attacks, Median [4]: 7.08
Average Severity of Weekly Symptomatic RP Attacks, Change from Baseline, Mean [4]: −0.60
Average Severity of Weekly Symptomatic RP Attacks, Change from Baseline, Median [4]: −0.60
Average Severity of Weekly Symptomatic RP Attacks, Percent Change from Baseline, Mean [4]: −10.43%
Average Severity of Weekly Symptomatic RP Attacks, Percent Change from Baseline, Median [4]: −10.43%
Average Severity (0-10) of Weekly Symptomatic RP Attacks, Mean [5]: 7.08
Average Severity (0-10) of Weekly Symptomatic RP Attacks, Median [5]: 7.08
Average Severity of Weekly Symptomatic RP Attacks, Change from Baseline, Mean [5]: −0.60
Average Severity of Weekly Symptomatic RP Attacks, Change from Baseline, Median [5]: −0.60
Average Severity of Weekly Symptomatic RP Attacks, Percent Change from Baseline, Mean [5]: −10.43%
Average Severity of Weekly Symptomatic RP Attacks, Percent Change from Baseline, Median [5]: −10.43%
Average Severity of Weekly RP Attacks (All Attacks), Change from Baseline, Mean [6]: −1.19
Average Severity of Weekly RP Attacks (All Attacks), Change from Baseline, Median [6]: −1.19
Average Severity of Weekly RP Attacks (All Attacks), Mean [6]: 4.56
Average Severity of Weekly RP Attacks (All Attacks), Median [6]: 4.56
Average Severity of Weekly RP Attacks (All Attacks), Percent Change from Baseline, Mean [6]: −20.69%
Average Severity of Weekly RP Attacks (All Attacks), Percent Change from Baseline, Median [6]: −20.69%
Average Severity of Weekly Symptomatic RP Attacks (Mean) [7]: 4.67
Average Severity of Weekly Symptomatic RP Attacks (Median) [7]: 4.67
Average Severity of Weekly Symptomatic RP Attacks, Change from Baseline, Mean [7]: −1.32
Average Severity of Weekly Symptomatic RP Attacks, Change from Baseline, Median [7]: −1.32
Average Severity of Weekly Symptomatic RP Attacks, Percent Change from Baseline, Mean [7]: −22.01%
Average Severity of Weekly Symptomatic RP Attacks, Percent Change from Baseline, Median [7]: −22.01%
Average Severity of Weekly RP Attacks (All Attacks), Change from Baseline, Mean [8]: −0.47
Average Severity of Weekly RP Attacks (All Attacks), Change from Baseline, Median [8]: −0.47
Average Severity of Weekly RP Attacks (All Attacks), Mean [8]: 7.02
Average Severity of Weekly RP Attacks (All Attacks), Median [8]: 7.02
Average Severity of Weekly RP Attacks (All Attacks), Percent Change from Baseline, Mean [8]: −8.97%
Average Severity of Weekly RP Attacks (All Attacks), Percent Change from Baseline, Median [8]: −8.97%
Average Severity of Weekly RP Attacks (All Attacks), Percent Change from Baseline, Mean [9]: −8.97%
Average Severity of Weekly RP Attacks (All Attacks), Percent Change from Baseline, Median [9]: −8.97%
Average Severity of Weekly RP Attacks (All Attacks), Change from Baseline, Mean [10]: −0.47
Average Severity of Weekly RP Attacks (All Attacks), Change from Baseline, Median [10]: −0.47
Average Severity of Weekly RP Attacks (All Attacks), Mean [10]: 7.02
Average Severity of Weekly RP Attacks (All Attacks), Median [10]: 7.02
reduction in severity (more severe disease at baseline (RCS>5.0), n=2 per treatment): 6.3%
